pEC50: −log10 of the molar value. Structures can show the parent of a compound that is named as a salt. Where two headings read alike, the source gives them in different places.
Tests used:
[1] = tested on: CMK; test: Secondary dose-response HTS, Cell Titer Glo; type: cell-based, human; details: CMK; for average effective concentration, CMK: secondary high-throughput screen
[2] = tested on: MV4-11; test: cells; design: species or system AML cell lines (8); Secondary HTS, 10-point dose-response in triplicate, Cell Titer Glo viability, four-parameter fit EC50; details: Homo sapiens, MV4-11, 72 h, read-out: MV4-11
[3] = tested on: M07e; test: cells; design: species or system AML cell lines (8); Secondary HTS, 10-point dose-response in triplicate, Cell Titer Glo viability, four-parameter fit EC50; details: M-07e, 72 h, read-out: M07e
[4] = tested on: MV4-11; test: Secondary dose-response HTS, Cell Titer Glo; type: cell-based, human
[5] = tested on: CHRF288-11; test: Secondary dose-response HTS, Cell Titer Glo; type: cell-based, human; details: secondary high-throughput screen; CHRF288-11
[6] = tested on: ML2; test: Secondary dose-response HTS, Cell Titer Glo; type: cell-based, human
[7] = tested on: CMS; design: species or system AML cell lines (8); Primary HTS, single concentration about 10 uM, Cell Titer Glo viability; log10 luminescence, per cent inhibition relative to cycloheximide control; details: 72 h, relative to cycloheximide control, log10 luminescence; inhibitor
[8] = tested on: ML-2; design: species or system AML cell lines (8); Primary HTS, single concentration about 10 uM, Cell Titer Glo viability; log10 luminescence, per cent inhibition relative to cycloheximide control; details: 72 h, relative to cycloheximide control, log10 luminescence; inhibitor
[9] = tested on: MV4-11; design: species or system AML cell lines (8); Primary HTS, single concentration about 10 uM, Cell Titer Glo viability; log10 luminescence, per cent inhibition relative to cycloheximide control; details: 72 h, relative to cycloheximide control, log10 luminescence; inhibitor
[10] = tested on: CHRF288-11; design: species or system AML cell lines (8); Primary HTS, single concentration about 10 uM, Cell Titer Glo viability; log10 luminescence, per cent inhibition relative to cycloheximide control; details: 72 h, relative to cycloheximide control, log10 luminescence; inhibitor
[11] = tested on: U937; design: species or system AML cell lines (8); Primary HTS, single concentration about 10 uM, Cell Titer Glo viability; log10 luminescence, per cent inhibition relative to cycloheximide control; details: 72 h, relative to cycloheximide control, log10 luminescence; inhibitor
[12] = tested on: CMK; design: species or system AML cell lines (8); Primary HTS, single concentration about 10 uM, Cell Titer Glo viability; log10 luminescence, per cent inhibition relative to cycloheximide control; details: 72 h, relative to cycloheximide control, log10 luminescence; inhibitor
[13] = tested on: MOLM-13; design: species or system AML cell lines (8); Primary HTS, single concentration about 10 uM, Cell Titer Glo viability; log10 luminescence, per cent inhibition relative to cycloheximide control; details: 72 h, relative to cycloheximide control, log10 luminescence; inhibitor
[14] = tested on: M07e; design: species or system AML cell lines (8); Primary HTS, single concentration about 10 uM, Cell Titer Glo viability; log10 luminescence, per cent inhibition relative to cycloheximide control; details: 72 h, relative to cycloheximide control, log10 luminescence; inhibitor
[15] = secondary high-throughput screen, MV4-11

Compound | CMS %inh [7] [%] | ML-2 %inh [8] [%] | MV4-11 %inh [9] [%] | CHRF288-11 %inh [10] [%] | U937 %inh [11] [%] | CMK %inh [12] [%] | MOLM-13 %inh [13] [%] | M07e %inh [14] [%] | also measured
Cc1cc(Nc2ccc(NC(=O)c3ccc(Nc4ccnc5ccccc45)cc3)cc2)nc(N)n1 [SGI-1027] |  |  |  |  |  |  |  |  | average effective concentration, CMK [1]: Inactive
COc1cc(OC)c(/C=C/S(=O)(=O)Cc2ccc(OC)c(NCC(=O)O)c2)c(OC)c1 [rigosertib] |  |  |  |  |  |  |  |  | pEC50 [2]: 7.91; pEC50 [3]: < 5.00
COc1ccc(-c2nc(N3CCOCC3)c3sc(CN(C)c4ncc(C(=O)NO)cn4)cc3n2)cn1 [CUDC-907] |  |  |  |  |  |  |  |  | pEC50 [2]: 9.68
CS(=O)(=O)N1CCN(Cc2cc3nc(-c4cccc5[nH]ncc45)nc(N4CCOCC4)c3s2)CC1 [Pictilisib, reference compound] |  |  |  |  |  |  |  |  | pEC50 ([1]; Homo sapiens, read-out: average effective concentration, CMK): 5.64
COc1ccc([C@@]23Oc4cc(OC)cc(OC)c4[C@]2(O)[C@H](O)[C@H](C(=O)N(C)C)[C@H]3c2ccccc2)cc1 [ROCAGLAMIDE A] |  |  |  |  |  |  |  |  | average effective concentration, MV4-11 [4, 15]: Inactive
CC/C(=C(\c1ccccc1)c1ccc(OCCN(C)C)cc1)c1ccccc1 [TAMOXIFEN CITRATE] |  |  |  |  |  |  |  |  | pEC50 [2]: < 5.00
CNC(=O)c1ccccc1Nc1nc(Nc2ccc(N3CCOCC3)cc2OC)ncc1Cl [NVP-TAE226] |  |  |  |  |  |  |  |  | average effective concentration, MV4-11 [4, 15]: Inactive
CCNC(=O)C[C@@H]1N=C(c2ccc(Cl)cc2)c2cc(OC)ccc2-n2c(C)nnc21 [I-BET-762] |  |  |  |  |  |  |  |  | average effective concentration, CHRF288-11 [5]: Inactive; average effective concentration, CMK [1]: Inactive
COc1ccc(C[C@H](NC(=O)[C@H](C)NC(=O)CN2CCOCC2)C(=O)N[C@@H](Cc2ccccc2)C(=O)C2(C)CO2)cc1 (stereo in doubt) [ONX-0914, reference compound] |  |  |  |  |  |  |  |  | pEC50 ([6]; secondary HTS, 72 h, average of triplicate, read-out: EC50 ML2): 7.40; pEC50 ([4]; secondary HTS, 72 h, average of triplicate, read-out: EC50 MV4-11): 7.30
O=C1c2c(O)ccc(O)c2C(=O)c2c(NCCNCCO)ccc(NCCNCCO)c21 [MITOXANTHRONE] |  |  |  |  |  |  |  |  | pEC50 ([6]; secondary high-throughput screen, ML-2, read-out: average effective concentration, ML-2): 6.62
CNC(=O)c1ccccc1Sc1ccc2c(/C=C/c3ccccn3)n[nH]c2c1 [AXITINIB] |  |  |  |  |  |  |  |  | pEC50 ([4]; Homo sapiens, secondary high-throughput screen, MV4-11, read-out: average effective concentration, MV4-11): 5.96
COC[C@H](NC(=O)c1cnc(C)s1)C(=O)N[C@@H](COC)C(=O)N[C@@H](Cc1ccccc1)C(=O)[C@@]1(C)CO1 [Oprozomib] |  |  |  |  |  |  |  |  | pEC50 [2]: 8.07; pEC50 [3]: 8.20
CCN1CCN(CC(=O)Nc2ccc(-c3cccc4c(=O)cc(N5CCOCC5)oc34)c3sc4ccccc4c23)CC1 [KU-0060648] |  |  |  |  |  |  |  |  | average effective concentration, MV4-11 [4, 15]: Inactive
C=CCn1c(=O)c2cnc(Nc3ccc(N4CCN(C)CC4)cc3)nc2n1-c1cccc(C(C)(C)O)n1 [MK-1775] |  |  |  |  |  |  |  |  | pEC50 [3]: < 5.00
Cn1cccc1/C=C1\C(=O)NC(=O)c2ccccc21 [BYK 204165] |  |  |  |  |  |  |  |  | average effective concentration, CMK [1]: Inactive
CO[C@H](C(=O)[C@@H](O)[C@@H](C)O)[C@@H]1Cc2cc3cc(O[C@H]4C[C@@H](O[C@H]5C[C@@H](O)[C@H](O)[C@@H](C)O5)[C@H](O)[C@@H](C)O4)c(C)c(O)c3c(O)c2C(=O)[C@H]1O[C@H]1C[C@@H](O[C@H]2C[C@@H](O[C@H]3C[C@](C)(O)[C@H](O)[C@@H](C)O3)[C@@H](O)[C@@H](C)O2)[C@H](O)[C@@H](C)O1 [MITHRAMYCIN A] |  |  |  |  |  |  |  |  | pEC50 [3]: < 5.00
N#Cc1c(NC(=O)CN2CCOCC2)sc2c1CCCC2 [SJ000573317-1, ST/830472] | 0.5199 | 1.88 | -2.657 | 1.546 | 3.525 | -5.985 | -0.7057 | 3.047 | 
COc1cc2c(cc1OC)C(=O)C(CC1CCN(Cc3ccccc3)CC1)C2 (stereo not shown) [SJ000555704-1, DONEPEZIL HYDROCHLORIDE] | 6.718 | 0.002244 | 4.602 | 3.237 | 1.153 | 10.45 | 1.714 | 3.462 | 
O=C1NC(=O)C(c2ccccc2Cl)=C1Nc1cccc(O)c1 [SJ000573183-1, BS98679-018A5] | 26.93 | 39.83 | 22.8 | 41.21 | 51.74 | 56.79 | 67.3 | 51.61 | 
O=C(O[C@H]1CN[C@H](C#Cc2cc3ncnc(Nc4ccc5c(ccn5Cc5cc(F)ccc5F)c4)c3s2)C1)N1CCOCC1 [SJ000573160-1, U20298/150/2] | 12.05 | 4.843 | 8.297 | 10.62 | 14.13 | 5.697 | 10.52 | -0.7728 | 
c1ccc(COc2ccc(Nc3ncnc4ccc(-c5ccco5)cc34)cc2)cc1 [SJ000573171-1, C3157/71/1] | 1.088 | 3.492 | 14.65 | -4.196 | 10.84 | 6.655 | 27.04 | -0.2498 | 
CCc1cc(C(N)=S)ccn1 [SJ000285764-4, ETHIONAMIDE] | -3.091 | 0.2945 | -3.503 | 8.533 | -1.304 | -7.383 | -0.3958 | 0.2673 | 
CN(c1ccc(NC(=O)Nc2c(Cl)cccc2Cl)cc1)c1ccnc(Nc2cccc(CS(C)(=O)=O)c2)n1 [SJ000573099-1, U17983/31/1] | 10.65 | 37.92 | 78.59 | 15.56 | 19.94 | 37.49 | 85.25 | 50.22 | 
CCn1c(-c2nonc2N)nc2ccc(F)cc21 [SJ000573344-1, U17602/50/1] | -1.218 | -0.6145 | -0.453 | 4.16 | -1.756 | -0.9351 | 3.561 | 1.126 | 
COc1cc(Nc2ncc(-c3ccccc3)o2)cc(OC)c1OC [SJ000573009-1, U21834/26/1] | 12.03 | 46.26 | 70.39 | 41.65 | 48.56 | 106.1 | 93.46 | 25.07 | 
Cc1ccc(C(=O)NC2CCCCC2)cc1-c1ccc(C(=O)NCC2CC2)cc1 [SJ000573346-1, R5311/184/6] | -0.3831 | -1.695 | 6.399 | 2.896 | 4.929 | 5.045 | 6.287 | -0.328 | 
